{"source": "patent US10513534B2", "about": "“2′-chloro nucleoside analogs for HCV infection” (priority 2012, dated 2019)", "key": {"HCV genotype 1b replicon": {"tested_on": "HCV genotype 1b replicon", "assay": "HCV replicon assay (Zluc luciferase)", "format": "cell-based", "conditions": "Zluc cells, 72 hours; read-out: HCV Replicon EC50", "outline": "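Zluc Huh-7 cells with HCV genotype 1b replicon and luciferase reporter treated with 5-fold dilutions (100 μM to 0.0000512 μM final) in duplicate, or at 1 and 10 μM. Luminescence read with ONE-glo; EC50 from dose-response fits, or % inhibition at the fixed concentrations.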"}, "[1]": {"assay": "Stability in simulated gastric fluid", "format": "in vitro ADME", "conditions": "simulated gastric fluid with pepsin, 100 μM, 2 hours, 37° C.", "description": "(§1) Stability in Simulated Gastric and Intestinal Fluids: Simulated gastric and intestinal fluids containing pepsin and pancreatin respectively were prepared according to the U.S. Pharmacopoeia USP291 procedure(www.pharmacopeia.cn/v29240/usp29nf24s0_ris1s126.html). Each test compound (final concentration 100 μM) was incubated in duplicate in the appropriate fluid for 2 hours at 37° C. The samples were quenched with […] cold acetonitrile, vortexed for 30 seconds and then centrifuged at 16100×g for 10 min. The supernatants were analyzed by HPLC on a C-18 column with UV detection at 252 nm. The time zero samples were prepared by adding SGF or SIF fluid to the quenching solvent followed by the test compound. Stability of the compound was determined by peak area of the test compound after incubation and calculated as percent of the peak area observed at time zero."}, "[2]": {"assay": "Stability in simulated intestinal fluid", "format": "in vitro ADME", "conditions": "simulated intestinal fluid with pancreatin, 100 μM, 2 hours, 37° C.", "description": "as §1"}, "Huh-7 cells": {"tested_on": "Huh-7 cells", "assay": "Release of active metabolite in Huh-7 cells", "format": "in vitro ADME", "description": "Huh-7 cells were plated in 1 mL culture medium (DMEM, containing glucose, L-glutamine and sodium pyruvate, 10% FBS, 100 IU/mL penicillin, 100 μg/mL streptomycin, 2 mM GlutaMAX, 1% MEM non-essential amino acids) at the concentration 0.8, 0.4 and 0.2 million cells per well on 6 well plates for 24, 48 and 72 hr treatment, respectively. Plated cells were incubated overnight at 37° C. in an incubator.\nThe following morning test compound was diluted to 20 μM from a stock solution in DMSO in fresh culture medium pre-warmed to 37° C. and 1 mL of the solution/well was added to cells. A final medium volume per well was 2.0 mL, test compound concentration in well was 10 μM and final DMSO concentration was 0.1%.\nAfter 24, 48 or 72 hr, the medium was carefully removed and cell monolayers were washed twice with 2 mL ice-cold PBS per well. Following the last wash, all PBS was carefully removed and 1.0 mL of extraction solution (ice-cold 70% methanol) added. The plate was tightly covered with Parafilm, plastic plate cover and Parafilm again and an intracellular content was extracted at −20° C. for 24 hr.\nAfter 24 hr the extracts were transferred into polypropylene microfuge tubes and dry on a refrigerated centrivap concentrator. Dry residues were reconstituted in 250 μL of HPLC-grade water and centrifuged at 16,000×g for 10 min. Aliquots (100 μL each) of the supernatants were transferred into a 96 well plate and internal standard (4 ng/mL final concentration) was added as the internal standard (IS) for LC-MS/MS analysis."}, "[3]": {"assay": "Plasma nucleoside pharmacokinetics after single oral dose in CD-1 mice", "format": "in vivo", "conditions": "single oral dose 10 mg/kg in PEG 200", "outline": "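Mouse plasma was extracted by acetonitrile/0.2% formic acid protein precipitation using 2′-MeG-D3 or tiapride as internal standard. Nucleoside was quantified by positive-ion LC-MS/MS after C18 gradient separation. Calibration spanned 0.500 (LLOQ) to 200 ng/mL.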"}, "Zluc cells": {"tested_on": "Zluc cells", "assay": "Cytotoxicity evaluation, CellTiter-Blue Cell Viability Assay", "conditions": "Zluc cells, CellTiter-Blue"}}, "note": "pEC50: −log10 of the molar value.", "data": [{"compound": "CC(C)OC(=O)[C@H](C)NP(=O)(OC[C@H]1O[C@@H](n2ccc(=O)[nH]c2=O)[C@](C)(Cl)[C@@H]1O)Oc1ccccc1", "note": "(single isomer, unassigned) [Compound 40ii Diastereomer 2];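 as to Ms Plasma nucleoside AUC: pmol·h/mL plasma normalized to a 1 µmol/kg dose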", "values": [{"measurement": "pEC50", "setting": "HCV genotype 1b replicon", "result": "> 6.60"}, {"measurement": "SGF stability (percent remaining)", "setting": "[1]", "result": "++++ (75% < ++++)"}, {"measurement": "SIF stability (percent remaining)", "setting": "[2]", "result": "+ (+ ≤ 25%)"}, {"measurement": "Huh-7 TP AUC", "setting": "Huh-7 cells; 10 μM", "result": "++++ (1500 < ++++)"}, {"measurement": "Huh-7 TP Cmax", "setting": "Huh-7 cells; 10 μM test compound", "result": "++++ (100 < ++++)"}, {"measurement": "Huh-7 TP (24 hr)", "setting": "Huh-7 cells; 10 μM, 24 hr", "result": "++++ (100 < ++++)"}, {"measurement": "Huh-7 TP (48 hr)", "setting": "Huh-7 cells; 10 μM, 48 hr", "result": "++++ (100 < ++++)"}, {"measurement": "Huh-7 TP (72 hr)", "setting": "Huh-7 cells; 10 μM, 72 hr", "result": "++++ (100 < ++++)"}, {"measurement": "Ms Plasma nucleoside AUC", "setting": "[3]", "result": "+++ (500 < +++ ≤ 1500)"}, {"measurement": "Ms Plasma nucleoside Cmax", "setting": "[3]", "result": "+++ (50 < +++ ≤ 100)"}, {"measurement": "CC50", "setting": "Zluc cells", "result": "> 50", "unit": "µM"}]}]}
